Here are results for five molecules from patent publication US10004701B2, “Methods and compositions for treating infection” (UNIVERSITY OF ROCHESTER, priority 2012, dated 2018).

Test in all cases: AK assay 384-well format, Prestwick library screening
In one assay the test system is E. faecium. The assay is classed as cell-based, Enterococcus faecium. The following applies: for fold induction at 50 µM: Enterococcus faecium, 3 h.
Assay [1] deals with S. aureus strain USA300-0114. Format: cell-based, Staphylococcus aureus. As to conditions: for fold induction at 50 µM: Staphylococcus aureus, USA300, 3 h.
In a further assay the test system is K. pneumoniae. The assay is classed as cell-based, Klebsiella pneumoniae. As to conditions: for fold induction at 50 µM: Klebsiella pneumoniae, 3 h.
Assay [2] relates to A. baumannii strain 98-37-09. The assay is classed as cell-based, Acinetobacter baumannii. As to conditions: for fold induction at 50 µM: Acinetobacter baumannii, 983709, 3 h.
For the next assay, the system named is P. aeruginosa. Format: cell-based, Pseudomonas aeruginosa. The following applies: for fold induction at 50 µM: Pseudomonas aeruginosa, 3 h.
The subject of a further assay is E. cloacae. The assay is classed as cell-based, Enterobacter cloacae. As to conditions: for fold induction at 50 µM: Enterobacter cloacae, 3 h.
In another assay the test system is E. coli. Format: cell-based, Escherichia coli. As to conditions: for fold induction at 50 µM: Escherichia coli, 3 h.

Like-named read-outs stand apart in the source and are kept apart here.

`CCCSc1ccc2nc(NC(=O)OC)[nH]c2c1` [Albendazole]: the fold induction at 50 µM with E. faecium (50 μM final drug concentration, 384-well format, […], read-out: AK-based Prestwick Library Screening Results, E. faecium (increase in extracellular AK activity)) is 0.5; in assay [1] (50 μM final drug concentration, 384-well format, […], read-out: AK-based Prestwick Library Screening Results, S. aureus (increase in extracellular AK activity)), 0.2; in the assay on K. pneumoniae (50 μM final drug concentration, 384-well format, […], read-out: AK-based Prestwick Library Screening Results, K. pneumoniae (increase in extracellular AK activity)), 0.3; in assay [2] (50 μM final drug concentration, 384-well format, […], read-out: AK-based Prestwick Library Screening Results, A. baumannii (increase in extracellular AK activity)), 0.3; with P. aeruginosa (50 μM final drug concentration, 384-well format, […], read-out: AK-based Prestwick Library Screening Results, P. aeruginosa (increase in extracellular AK activity)), 0.3; in the assay on E. cloacae (read-out: AK-based Prestwick Library Screening Results, E. cloacae (increase in extracellular AK activity)) it was 0.4. Further, the fold induction at 50 µM in the assay on E. coli (50 μM final drug concentration, 384-well format, […], read-out: AK-based Prestwick Library Screening Results, E. coli (increase in extracellular AK activity)) stood at 0.3.
Regarding `CCC(=O)OCC(=O)[C@@]1(OC(=O)CC)[C@H](C)C[C@H]2[C@H]3[C@H]([C@@H](O)C[C@@]21C)[C@@]1(C)C=CC(=O)C=C1C[C@H]3Cl` [Alclometasone dipropionate], the fold induction at 50 µM in the assay with E. faecium (50 μM final drug concentration, […], read-out: AK-based Prestwick Library Screening Results, E. faecium (fold increase in extracellular AK activity)) turned out to be 1; in assay [1] (50 μM final drug concentration, […], read-out: AK-based Prestwick Library Screening Results, S. aureus (fold increase in extracellular AK activity)), 1.1; with K. pneumoniae (50 μM final drug concentration, […], read-out: AK-based Prestwick Library Screening Results, K. pneumoniae (fold increase in extracellular AK activity)), 1.1; in assay [2] (50 μM final drug concentration, […], read-out: AK-based Prestwick Library Screening Results, A. baumannii (fold increase in extracellular AK activity)), 0.9; in the assay on P. aeruginosa (50 μM final drug concentration, […], read-out: AK-based Prestwick Library Screening Results, P. aeruginosa (fold increase in extracellular AK activity)), 1; in the assay on E. cloacae (50 μM final drug concentration, […], read-out: AK-based Prestwick Library Screening Results, E. cloacae (fold increase in extracellular AK activity)), 1.2. The fold induction at 50 µM in the assay with E. coli (50 μM final drug concentration, […], read-out: AK-based Prestwick Library Screening Results, E. coli (fold increase in extracellular AK activity)) was found to be 1.1.
For the molecule `C=CC[N@@+]12CC[C@@]34c5ccccc5N5/C=C6/[C@H]7C[C@H]8[C@@]9(CC[N@@+]8(CC=C)C/C7=C/CO)c7ccccc7N(/C=C(/[C@@H](C[C@@H]31)/C(=C\CO)C2)[C@H]54)[C@@H]69.[Cl-].[Cl-]` [Alcuronium chloride], in the assay on E. faecium (planktonic E. faecium, 50 μM final drug concentration, […]), the “AK-based Prestwick library screening result, E. faecium (fold increase in extracellular AK activity)” value came to 1.0. The “AK-based Prestwick library screening result, S. aureus (fold increase in extracellular AK activity)” value in assay [1] (planktonic S. aureus, 50 μM final drug concentration, […]) turned out to be 1.2. Further, in the assay with K. pneumoniae (planktonic K. pneumoniae, 50 μM final drug concentration, […]), the “AK-based Prestwick library screening result, K. pneumoniae (fold increase in extracellular AK activity)” value amounted to 1.0. The “AK-based Prestwick library screening result, A. baumannii (fold increase in extracellular AK activity)” value in assay [2] (planktonic A. baumannii, 50 μM final drug concentration, […]) stood at 1.4. Also, in the assay on P. aeruginosa (planktonic P. aeruginosa, 50 μM final drug concentration, […]), the “AK-based Prestwick library screening result, P. aeruginosa (fold increase in extracellular AK activity)” value was 1.0. The “AK-based Prestwick library screening result, E. cloacae (fold increase in extracellular AK activity)” value with E. cloacae (planktonic E. cloacae, 50 μM final drug concentration, […]) is reported as 2.2. The “AK-based Prestwick library screening result, E. coli (fold increase in extracellular AK activity)” value in the assay with E. coli (planktonic E. coli, 50 μM final drug concentration, […]) amounted to 1.4.
For the molecule `CC(=O)OCC(=O)[C@H]1CC[C@H]2[C@@H]3CC[C@H]4C[C@H](O)CC[C@]4(C)[C@H]3C(=O)C[C@]12C` [Alfadolone acetate], the fold induction at 50 µM came to 1.1 in the assay on E. faecium (planktonic E. faecium, 50 μM final drug concentration, […], read-out: AK-based Prestwick library screening result, E. faecium (fold increase in extracellular AK activity)); 1 in assay [1] (planktonic S. aureus, 50 μM final drug concentration, […], read-out: AK-based Prestwick library screening result, S. aureus (fold increase in extracellular AK activity)); 0.9 in the assay with K. pneumoniae (planktonic K. pneumoniae, 50 μM final drug concentration, […], read-out: AK-based Prestwick library screening result, K. pneumoniae (fold increase in extracellular AK activity)); 1 in assay [2] (planktonic A. baumannii, 50 μM final drug concentration, […], read-out: AK-based Prestwick library screening result, A. baumannii (fold increase in extracellular AK activity)); 1 in the assay on P. aeruginosa (planktonic P. aeruginosa, 50 μM final drug concentration, […], read-out: AK-based Prestwick library screening result, P. aeruginosa (fold increase in extracellular AK activity)); 1.4 in the assay with E. cloacae (planktonic E. cloacae, 50 μM final drug concentration, […], read-out: AK-based Prestwick library screening result, E. cloacae (fold increase in extracellular AK activity)). Moreover, the fold induction at 50 µM in the assay with E. coli (planktonic E. coli, 50 μM final drug concentration, […], read-out: AK-based Prestwick library screening result, E. coli (fold increase in extracellular AK activity)) turned out to be 1.2.
For `CC(=O)[C@H]1CC[C@H]2[C@@H]3CC[C@H]4C[C@H](O)CC[C@]4(C)[C@H]3C(=O)C[C@]12C` [Alfaxalone], the fold induction at 50 µM in the assay with E. faecium (read-out: AK-based Prestwick library screening result, E. faecium (fold increase in extracellular AK activity)) stood at 1.1; in assay [1] (read-out: AK-based Prestwick library screening result, S. aureus (fold increase in extracellular AK activity)) it was 1.2; in the assay with K. pneumoniae (read-out: AK-based Prestwick library screening result, K. pneumoniae (fold increase in extracellular AK activity)), 1; in assay [2] (read-out: AK-based Prestwick library screening result, A. baumannii (fold increase in extracellular AK activity)) it was 1; in the assay with P. aeruginosa (read-out: AK-based Prestwick library screening result, P. aeruginosa (fold increase in extracellular AK activity)) it was 1.2; with E. cloacae (read-out: AK-based Prestwick library screening result, E. cloacae (fold increase in extracellular AK activity)) it was 1.7. Also, in the assay with E. coli (read-out: AK-based Prestwick library screening result, E. coli (fold increase in extracellular AK activity)), the fold induction at 50 µM amounted to 1.2.
